Assays:
Format in all cases: cell-based
[1] = test system: human aortic smooth muscle cells (AoSMC); assay: Alkaline phosphatase activity assay in AoSMC; conditions: for decrease in ALP activity: 5 mM b-GP, 25 mcM forskolin; for increase of ALP activity / increase of ALP activity compared to control / increase in ALP activity compared to control: 1 mcM statin; for increase of ALP activity compared to control / increase in ALP activity compared to control: four days; for increase of ALP activity compared to control: FIG. 4A; for increase in ALP activity compared to control: pro-calcification condition (5 mM b-GP and 25 mcM forskolin), FIG. 4B
Experimental: Alkaline phosphatase activity assay in AoSMC: AoSMC were plated in 96 well plates and grown to confluent layer. […] Cells were washed with phosphate buffered saline (PBS) and supplemented with 50 mcl/well 25 mcg/ml 4-MUP (fluorescent ALP substrate, Sigma) in alkaline buffer (Sigma)/1% Triton X100 for 1 h at room temperature. Fluorescence was measured at 360/450 nm.
Statistical analysis: Results in figures are means±standard deviation (SD) from three or more repetitions from the most representative of at least two independent experiments. Differences between samples were estimated with a two-tailed Student's t-test using Excel software (Microsoft) and accepted as significant at p levels less than 0.05. The results in FIGS. 4A and 4B and FIGS. 5A and 5B are expressed as percentage of supplemented controls and presented as means±SD from six or more repetitions from the most representative of at least two independent experiments.
The calcification process of AoSMC was evaluated by the activity of cellular alkaline phosphatase (ALP). The study assessed the effects of Mixture 1 (micronutrient combination containing ascorbate) and ascorbate individually under standard (5% FBS/DMEM) and pro-calcification conditions (5% FBS/DMEM supplemented with 5 mM beta-glycerophosphate (b-GP) and 25 mcM forskolin—FIG. 4B).

[2] = test system: human aortic smooth muscle cells (AoSMC); assay: Calcium accumulation in extracellular matrix of AoSMC
Experimental: Cell viability was monitored with MTT assay. […] Plant-derived micronutrients suppress monocyte adhesion to cultured human aortic endothelial cell layer by modulating its extracellular matrix composition. J Cardiovasc Pharmacol 2008; 52:55-65. After four washes with PBS, ECM layers were solubilized by incubation in 0.6N HCl for 48 hours at 37° C. Calcium content in solubilized samples was measured with TECO Ca assay according to the manufacturer's protocol. […] The calcification process of AoSMC was evaluated by the activity of cellular alkaline phosphatase and calcium accumulation in the cell-produced extracellular matrix (FIG. 1).

human aortic SMC = assay: Expression of osteoblast markers in AoSMC (immunoassay); conditions: 100 mcM ascorbic acid, 5 mM beta-glycerophosphate and 25 mcM forskolin, 4 weeks, FIG. 3A
[3] = test system: human dermal fibroblasts (DF); assay: Expression of osteoblast markers in human dermal fibroblasts (immunoassay); conditions: 100 mcM ascorbic acid, 5 mM beta-glycerophosphate and 25 mcM forskolin, 4 weeks, FIG. 3B
[4] = 300 mcM ascorbate, regular growth medium, FIG. 1
[5] = 100 mcM ascorbate in the presence of simvastatin, without forskolin, FIG. 2A
[6] = plain 5% FBS/DMEM, five days, FIG. 5A
[7] = pro-calcification conditions (5 mM b-GP, 25 mcM forskolin), five days, FIG. 5B

SMILES: O=C1O[C@H]([C@@H](O)CO)C(O)=C1O [ascorbic acid, L-ascorbic acid]
- ALP activity after addition of ascorbate ([1]; 300 mcM ascorbate in the presence of 1 mcM simvastatin, plain 5% FBS/DMEM, five days, FIG. 5A): decreased to control level
- decrease in ALP activity ([1]; 300 mcM ascorbate, mevastatin containing samples, five days, FIG. 5B): 37%
- decrease in ALP activity ([1]; 300 mcM ascorbate, pravastatin containing samples, five days, FIG. 5B): 24%
- decrease of alkaline phosphatase activity [1, 4]: 80%
- decrease in ALP activity ([1]; 300 mcM ascorbate, simvastatin containing samples, five days, FIG. 5B): 36%
- decrease in ALP activity ([1]; 300 mcM ascorbic acid in the absence of statins, five days, FIG. 5B): 29%
- decrease of statin-stimulated ALP activity ([1]; 300 mcM ascorbic acid in the presence of 1 mcM mevastatin, plain 5% FBS/DMEM, five days, FIG. 5A): 29%
- decrease of statin-stimulated ALP activity ([1]; 300 mcM ascorbic acid in the presence of 1 mcM pravastatin, plain 5% FBS/DMEM, five days, FIG. 5A): 30%
- decrease of alkaline phosphatase activity ([1]; 300 mcM ascorbic acid, no statin, plain 5% FBS/DMEM, five days, FIG. 5A): about 43%
- decrease of calcium accumulation ([2]; 100 mcM ascorbate added in the presence of mevastatin, with forskolin, FIG. 2B, to below control values): 19%
- accumulated calcium [2, 5]: 0.2 mcg/well
- decrease of accumulated calcium [2, 5]: 54%
- decrease of extracellular Ca accumulation by AoSMC [2, 4]: 20%
- expression of all tested osteogenic markers (human aortic SMC): significantly reduced
- expression of all tested osteogenic markers [3]: significantly reduced

SMILES: CC[C@H](C)C(=O)O[C@H]1CCC=C2C=C[C@H](C)[C@H](CC[C@@H]3C[C@@H](O)CC(=O)O3)[C@H]21 [mevastatin]
- increase of ALP activity [1, 6]: 61%
- increase of ALP activity compared to control ([1]; plain 5% FBS/DMEM): 25%
- increase in ALP activity compared to control [1]: 39%
- increase of ALP activity [1, 7]: 41%
- calcium accumulation ([2]; 1 mM mevastatin, with 25 mcM forskolin, FIG. 2B, control 1.35 mcg/well): 1.8 mcg/well

SMILES: CC[C@H](C)C(=O)O[C@H]1C[C@H](O)C=C2C=C[C@H](C)[C@H](CC[C@@H](O)C[C@@H](O)CC(=O)O)[C@H]21 [pravastatin]
- increase of ALP activity [1, 6]: 60%
- increase of ALP activity compared to control ([1]; plain 5% FBS/DMEM): 39%
- increase in ALP activity compared to control [1]: 25%
- increase of ALP activity [1, 7]: 25%

SMILES: CCC(C)(C)C(=O)O[C@H]1C[C@@H](C)C=C2C=C[C@H](C)[C@H](CC[C@@H]3C[C@@H](O)CC(=O)O3)[C@H]21 [simvastatin]
- increase of ALP activity [1, 6]: 57%
- increase in ALP activity compared to control [1]: 22%
- increase of ALP activity [1, 7]: 30%
- increase of calcium accumulation in AoSMC layers ([2]; simvastatin, without forskolin, FIG. 2A): 23%

— US10736872B1, “Pharmaceutical mixture to treat statin induced vascular calcification” (priority 2019, dated 2020)
